Read-outs that look alike come from different tables or passages of the source.
How the values were obtained:
Assay type in all cases: cell-based
[1] = test system: RSV-Fluc (Recombinant Respiratory Syncytial virus strain A2 containing the firefly luciferase reporter); test: microbe, parasite or virus in culture; settings: human respiratory syncytial virus, NHBE, 72 h, read-out: RSV-Fluc EC50 (nM, NHBE)
SARS-CoV-2 = test: microbe, parasite or virus in culture; settings: Severe acute respiratory syndrome coronavirus 2, 48 h
[2] = MT4 cytotoxicity analysis (CellTiter-Glo); settings: human
Protocol: Example 79: MT4 Cytotoxicity Analysis
3-fold serially diluted compound in DMSO, ranging from 2.5 uM to 10 mM, were added by acoustic transfer (Echo) in quadruplicate into black 384-well plates at 200 nl/well. After compound addition, 40 ul MT-4 cells at 80,000/ml were added to each well using a MicroFlo liquid dispenser (BioTek, Winooski, VT) and the cells were cultured for five days at 37° C. Following the incubation, cell viability was determined by adding 35 μL of CellTiter-Glo viability reagent and mixed thoroughly using ViaFlo 384 well workstation. The mixture was incubated for at least 10 minutes at 25° C., and the luminescence signal was quantified on an EnVision plate reader.

[3] = MT-4 cells, five days, CellTiter-Glo, read-out: MT4 CC50

SMILES | EC50 [1] [nM] | EC50 (SARS-CoV-2) [nM] | CC50 at 5 days ([2]; MT4 CC50 (nM)) [nM] | CC50 at 5 days [2, 3] [nM]
CCCCCCCCCCCCCCCCCCOC[C@H](COP(=O)(O)OC[C@H]1O[C@@](C#N)(c2ccc3c(N)ncnn23)[C@H](O)[C@@H]1O)N1Cc2ccccc2C1 [Example 1, ((2R,3S,4R,5R)-5-(4-aminopyrrolo[2,1-f][1,2,4]triazin-7-yl)-5-cyano-3,4-dihydroxytetrahydrofuran-2-yl)methyl ((R)-2-(isoindolin-2-yl)-3-(octadecyloxy)propyl) hydrogen phosphate] | 570 | 3200 | 20000 | –
CCCCCCCCCCCCCCCCCCOC[C@H](COP(=O)(O)OC[C@H]1O[C@@](C#N)(c2ccc3c(N)ncnn23)[C@H](O)[C@@H]1O)N(C)Cc1ccccc1 [Example 2, ((2R,3S,4R,5R)-5-(4-aminopyrrolo[2,1-f][1,2,4]triazin-7-yl)-5-cyano-3,4-dihydroxytetrahydrofuran-2-yl)methyl ((R)-2-(benzyl(methyl)amino)-3-(octadecyloxy)propyl) hydrogen phosphate] | 5000 | 10000 | 25000 | –
CCCCCCCCCCCCCCCCCCOC[C@H](COP(=O)(O)OC[C@H]1O[C@@](C#N)(c2ccc3c(N)ncnn23)[C@H](O)[C@@H]1O)N(C)C(=O)c1ccc(F)c(Cl)c1 [Example 4, ((2R,3S,4R,5R)-5-(4-aminopyrrolo[2,1-f][1,2,4]triazin-7-yl)-5-cyano-3,4-dihydroxytetrahydrofuran-2-yl)methyl ((R)-2-(3-chloro-4-fluoro-N-methylbenzamido)-3-(octadecyloxy)propyl) hydrogen phosphate] | 540 | 9400 | 13000 | –
CCCCCCCCCCCCCCCCCCO[C@@H](C)[C@H](COP(=O)(O)OC[C@H]1O[C@@](C#N)(c2ccc3c(N)ncnn23)[C@H](O)[C@@H]1O)OCc1ccccc1 [Example 5, ((2R,3S,4R,5R)-5-(4-aminopyrrolo[2,1-f][1,2,4]triazin-7-yl)-5-cyano-3,4-dihydroxytetrahydrofuran-2-yl)methyl ((2S,3S)-2-(benzyloxy)-3-(octadecyloxy)butyl) hydrogen phosphate] | 50 | 2500 | 3400 | –
CCCCCCCCCCCCCCCCCCOC[C@H](COP(=O)(O)OC[C@H]1O[C@@](C#N)(c2ccc3c(N)ncnn23)[C@H](O)[C@@H]1O)SCc1ccccc1 [Example 7, ((2R,3S,4R,5R)-5-(4-aminopyrrolo[2,1-f][1,2,4]triazin-7-yl)-5-cyano-3,4-dihydroxytetrahydrofuran-2-yl)methyl ((R)-2-(benzylthio)-3-(octadecyloxy)propyl) hydrogen phosphate] | 360 | 10000 | 39000 | –
CCCCCCCCCCCCCCCCCCO[C@H](C)[C@H](COP(=O)(O)OC[C@H]1O[C@@](C#N)(c2ccc3c(N)ncnn23)[C@H](O)[C@@H]1O)OCc1ccccc1 [Example 8, ((2R,3S,4R,5R)-5-(4-aminopyrrolo[2,1-f][1,2,4]triazin-7-yl)-5-cyano-3,4-dihydroxytetrahydrofuran-2-yl)methyl ((2S,3R)-2-(benzyloxy)-3-(octadecyloxy)butyl) hydrogen phosphate] | 160 | 2900 | 1800 | –
CCCCCCCCCCCCCCCCCCOC[C@H](COP(=O)(O)OC[C@H]1O[C@@](C#N)(c2ccc3c(N)ncnn23)[C@H](O)[C@@H]1O)N1Cc2cc(Cl)c(Cl)cc2C1 [Example 9, ((2R,3S,4R,5R)-5-(4-aminopyrrolo[2,1-f][1,2,4]triazin-7-yl)-5-cyano-3,4-dihydroxytetrahydrofuran-2-yl)methyl ((R)-2-(5,6-dichloroisoindolin-2-yl)-3-(octadecyloxy)propyl) hydrogen phosphate] | 490 | 9000 | 20000 | –
CCCCCCCCCCCCCCCCCCOC[C@H](COP(=O)(O)OC[C@H]1O[C@@](C#N)(c2ccc3c(N)ncnn23)[C@H](O)[C@@H]1O)NC(=O)c1ccccc1C(=O)O [Example 14, 2-(((2R)-1-(((((2R,3S,4R,5R)-5-(4-aminopyrrolo[2,1-f][1,2,4]triazin-7-yl)-5-cyano-3,4-dihydroxytetrahydrofuran-2-yl)methoxy)(hydroxy)phosphoryl)oxy)-3-(octadecyloxy)propan-2-yl)carbamoyl)benzoic acid] | 53 | 700 | 26000 | –
CCCCCCCCCCCCCCCCCCOC[C@H](COP(=O)(O)OC[C@H]1O[C@@](C#N)(c2ccc3c(N)ncnn23)[C@H](O)[C@@H]1O)N1C(=O)c2ccccc2C1=O [Example 15, ((2R,3S,4R,5R)-5-(4-aminopyrrolo[2,1-f][1,2,4]triazin-7-yl)-5-cyano-3,4-dihydroxytetrahydrofuran-2-yl)methyl ((R)-2-(1,3-dioxoisoindolin-2-yl)-3-(octadecyloxy)propyl) hydrogen phosphate] | 140 | 2500 | 35000 | –
CCCCCCCCCCCCCCCCCCOC[C@H](COP(=O)(O)OC[C@H]1O[C@@](C#N)(c2ccc3c(N)ncnn23)[C@H](O)[C@@H]1O)Nc1cccc(C#N)c1 [Example 16, ((2R,3S,4R,5R)-5-(4-aminopyrrolo[2,1-f][1,2,4]triazin-7-yl)-5-cyano-3,4-dihydroxytetrahydrofuran-2-yl)methyl ((R)-2-((3-cyanophenyl)amino)-3-(octadecyloxy)propyl) hydrogen phosphate] | 100 | 1100 | 1900 | –
CCCCCCCCCCCCCCCCCCOC[C@H](COc1ccccc1)OP(=O)(O)OC[C@H]1O[C@@](C#N)(c2ccc3c(N)ncnn23)[C@H](O)[C@@H]1O [Example 18, ((2R,3S,4R,5R)-5-(4-aminopyrrolo[2,1-f][1,2,4]triazin-7-yl)-5-cyano-3,4-dihydroxytetrahydrofuran-2-yl)methyl ((R)-1-(octadecyloxy)-3-phenoxypropan-2-yl) hydrogen phosphate] | 69 | 1800 | – | 670
CCCCCCCCCCCCCCCCCCOCCOP(=O)(O)OC[C@H]1O[C@@](C#N)(c2ccc3c(N)ncnn23)[C@H](O)[C@@H]1O [Example 21, ((2R,3S,4R,5R)-5-(4-Aminopyrrolo[2,1-f][1,2,4]triazin-7-yl)-5-cyano-3,4-dihydroxytetrahydrofuran-2-yl)methyl (2-(octadecyloxy)ethyl) hydrogen phosphate] | 250 | 9100 | – | 2300
CCCCCCCCCCCCCCCCCCO[C@H](COCc1ccccc1)COP(=O)(O)OC[C@H]1O[C@@](C#N)(c2ccc3c(N)ncnn23)[C@H](O)[C@@H]1O [Example 22, ((2R,3S,4R,5R)-5-(4-aminopyrrolo[2,1-f][1,2,4]triazin-7-yl)-5-cyano-3,4-dihydroxytetrahydrofuran-2-yl)methyl ((R)-3-(benzyloxy)-2-(octadecyloxy)propyl) hydrogen phosphate] | 150 | 3900 | – | 9600
CCCCCCCCCCCCCCCCO[C@H](COCc1ccccc1)COP(=O)(O)OC[C@H]1O[C@@](C#N)(c2ccc3c(N)ncnn23)[C@H](O)[C@@H]1O [Example 23, ((2R,3S,4R,5R)-5-(4-aminopyrrolo[2,1-f][1,2,4]triazin-7-yl)-5-cyano-3,4-dihydroxytetrahydrofuran-2-yl)methyl ((R)-3-(benzyloxy)-2-(hexadecyloxy)propyl) hydrogen phosphate] | 83 | 10000 | – | 23000
CCCCCCCCCCCCCCO[C@H](COCc1ccccc1)COP(=O)(O)OC[C@H]1O[C@@](C#N)(c2ccc3c(N)ncnn23)[C@H](O)[C@@H]1O [Example 24, ((2R,3S,4R,5R)-5-(4-Aminopyrrolo[2,1-f][1,2,4]triazin-7-yl)-5-cyano-3,4-dihydroxytetrahydrofuran-2-yl)methyl ((R)-3-(benzyloxy)-2-(tetradecyloxy)propyl) hydrogen phosphate] | 73 | 9900 | – | 35000
CCCCCCCCCCCCCCCCCCOC[C@H](CO[P@@](=O)(S)OC[C@H]1O[C@@](C#N)(c2ccc3c(N)ncnn23)[C@H](O)[C@@H]1O)OCc1ccccc1 [Example 28, O-(((2R,3S,4R,5R)-5-(4-aminopyrrolo[2,1-f][1,2,4]triazin-7-yl)-5-cyano-3,4-dihydroxytetrahydrofuran-2-yl)methyl) O—((R)-2-(benzyloxy)-3-(octadecyloxy)propyl)S-hydrogen (R)-phosphorothioate] | 190 | 3800 | 24000 | –
CCCCCCCCCCCCCCCCCCOC[C@H](COP(=O)(O)OC[C@H]1O[C@@](C#N)(c2ccc3c(N)ncnn23)[C@H](O)[C@@H]1O)OCc1cc(C#N)c(Cl)c(OC)c1 [Example 54, ((2R,3S,4R,5R)-5-(4-aminopyrrolo[2,1-f][1,2,4]triazin-7-yl)-5-cyano-3,4-dihydroxytetrahydrofuran-2-yl)methyl ((R)-2-((4-chloro-3-cyano-5-methoxybenzyl)oxy)-3-(octadecyloxy)propyl) hydrogen phosphate] | 64 | – | 1300 | –
CCCCCCCCCCCCCCCCCCN(C)C(=O)[C@H](COP(=O)(O)OC[C@H]1O[C@@](C#N)(c2ccc3c(N)ncnn23)[C@H](O)[C@@H]1O)OCc1cc(F)cc(C#N)c1 [Example 56, ((2R,3S,4R,5R)-5-(4-aminopyrrolo[2,1-f][1,2,4]triazin-7-yl)-5-cyano-3,4-dihydroxytetrahydrofuran-2-yl)methyl ((S)-2-((3-cyano-5-fluorobenzyl)oxy)-3-(methyl(octadecyl)amino)-3-oxopropyl) hydrogen phosphate] | 13 | – | 200 | –
